Experiment [1] concerns the target T1, hCA I (Homo sapiens, UniProt P00915).
T1 construct: gene CA1; cytosolic isoform
As to the kind of experiment: stopped-flow CA inhibition assay. Type of experiment: biochemical. The source says:
stopped-flow CA inhibition assay on hCA I

Experiment [2] addresses T2, hCA II (Homo sapiens, UniProt P00918).
T2 construct: gene CA2; cytosolic isoform
The experiment is described as follows: stopped-flow CA inhibition assay. Type of experiment: biochemical. The source says: stopped-flow CA inhibition assay on hCA II

The structures appear in SMILES notation. Structures can show the parent of a compound that is named as a salt.

As a reminder, the Ki is the dissociation constant of the complex between target and ligand, obtained from inhibition or displacement. Read a low Ki as tighter binding.

T1 sequence (P00915 2-261): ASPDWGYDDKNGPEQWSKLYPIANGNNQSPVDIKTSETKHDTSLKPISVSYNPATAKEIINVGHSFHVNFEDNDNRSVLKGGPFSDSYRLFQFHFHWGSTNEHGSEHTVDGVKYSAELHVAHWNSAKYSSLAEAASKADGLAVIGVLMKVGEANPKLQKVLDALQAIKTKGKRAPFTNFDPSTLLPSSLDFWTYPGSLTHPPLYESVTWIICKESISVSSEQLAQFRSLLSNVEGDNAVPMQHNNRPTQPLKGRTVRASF

Take `N=C(N)NC(=N)Nc1ccc(S(N)(=O)=O)cc1` [compound 2, 4-(3-Carbamimidoylguanidino)benzenesulfonamide hydrochloride salt]: the Ki in experiment [1] turned out to be 361 nM; in experiment [2], 135 nM.

As for `N=C(N)NC(=N)Nc1cccc(S(N)(=O)=O)c1` [compound 4, 3-(3-Carbamimidoylguanidino)benzenesulfonamide hydrochloride salt], the Ki in experiment [1] was found to be 707 nM; in experiment [2], 265 nM.

(Values after PMC10179589, “Membrane Permeability Is Required for the Vasodilatory Effect of Carbonic Anhydrase Inhibitors in Porcine Retinal Arteries” (International Journal of Molecular Sciences, 2023).)
